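Grown in 96-well plates, cells were treated for 48 hours with each compound at five concentrations. Insufficient inhibition: endpoint recorded as highest concentration tested. GI50: concentration for 50% inhibition of growth.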 The source made the active and inactive calls. Cut-off read from the data, not from the text of the source: active = GI50 up to about 1.1 µM and inactive = higher.
Key:
Test in all cases: NCI-60 cell line screen, 48 h
786-0 = tested on: 786-0
A498 = tested on: A498
ACHN = tested on: ACHN
BT-549 = tested on: BT-549
CAKI-1 = tested on: CAKI-1
CCRF-CEM = tested on: CCRF-CEM
COLO 205 = tested on: COLO 205
HCC 2998 = tested on: HCC 2998
HCT-116 = tested on: HCT-116
HL-60 = tested on: HL-60
HOP-62 = tested on: HOP-62
HT-29 = tested on: HT-29
Hs-578T = tested on: Hs-578T
IGROV-1 = tested on: IGROV-1
K562 = tested on: K562
M14 = tested on: M14
MDA-MB-435 = tested on: MDA-MB-435
MOLT-4 = tested on: MOLT-4
NCI-H23 = tested on: NCI-H23
NCI/ADR-RES = tested on: NCI/ADR-RES
OVCAR-5 = tested on: OVCAR-5
RPMI-8226 = tested on: RPMI-8226
RXF 393 = tested on: RXF 393
SF-268 = tested on: SF-268
SF-539 = tested on: SF-539
SK-MEL-28 = tested on: SK-MEL-28
SK-MEL-2 = tested on: SK-MEL-2
SK-OV-3 = tested on: SK-OV-3
SNB-19 = tested on: SNB-19
SNB-75 = tested on: SNB-75
SR = tested on: SR
T47D = tested on: T47D
U-251 = tested on: U-251
UACC-257 = tested on: UACC-257
UO-31 = tested on: UO-31
A549 = tested on: A549
DU-145 = tested on: DU-145
EKVX = tested on: EKVX
HCT-15 = tested on: HCT-15
HOP-92 = tested on: HOP-92
KM12 = tested on: KM12
MCF7 = tested on: MCF7
MDA-MB-231 = tested on: MDA-MB-231
NCI-H460 = tested on: NCI-H460
NCI-H522 = tested on: NCI-H522
OVCAR-3 = tested on: OVCAR-3
OVCAR-4 = tested on: OVCAR-4
OVCAR-8 = tested on: OVCAR-8
PC-3 = tested on: PC-3
SF-295 = tested on: SF-295
SK-MEL-5 = tested on: SK-MEL-5
SN12C = tested on: SN12C
SW-620 = tested on: SW-620
TK-10 = tested on: TK-10
UACC-62 = tested on: UACC-62
LOX IMVI = tested on: LOX IMVI
MDA-N = tested on: MDA-N
Malme-3M = tested on: Malme-3M
NCI-H226 = tested on: NCI-H226

SMILES: CCOC(=O)C(NC(=O)Nc1ccc(C)cc1)(OCC)C(F)(F)F (stereo unspecified)
- GI50 (786-0): > 100 µM (inactive)
- GI50 (A498): 53.8 µM (inactive)
- GI50 (ACHN): 56.5 µM (inactive)
- GI50 (BT-549): > 100 µM (inactive)
- GI50 (CAKI-1): 1.18 µM (inactive)
- GI50 (CCRF-CEM): > 100 µM (inactive)
- GI50 (COLO 205): > 100 µM (inactive)
- GI50 (HCC 2998): > 100 µM (inactive)
- GI50 (HCT-116): > 100 µM (inactive)
- GI50 (HL-60): 64.4 µM (inactive)
- GI50 (HOP-62): 26.5 µM (inactive)
- GI50 (HT-29): > 100 µM (inactive)
- GI50 (Hs-578T): 71.4 µM (inactive)
- GI50 (IGROV-1): > 100 µM (inactive)
- GI50 (K562): > 100 µM (inactive)
- GI50 (M14): > 100 µM (inactive)
- GI50 (MDA-MB-435): > 100 µM (inactive)
- GI50 (MOLT-4): > 100 µM (inactive)
- GI50 (NCI-H23): > 100 µM (inactive)
- GI50 (NCI/ADR-RES): 42.3 µM (inactive)
- GI50 (OVCAR-5): > 100 µM (inactive)
- GI50 (RPMI-8226): > 100 µM (inactive)
- GI50 (RXF 393): > 100 µM (inactive)
- GI50 (SF-268): > 100 µM (inactive)
- GI50 (SF-539): > 100 µM (inactive)
- GI50 (SK-MEL-28): > 100 µM (inactive)
- GI50 (SK-MEL-2): > 100 µM (inactive)
- GI50 (SK-OV-3): > 100 µM (inactive)
- GI50 (SNB-19): > 100 µM (inactive)
- GI50 (SNB-75): > 100 µM (inactive)
- GI50 (SR): 88.9 µM (inactive)
- GI50 (T47D): > 100 µM (inactive)
- GI50 (U-251): > 100 µM (inactive)
- GI50 (UACC-257): > 100 µM (inactive)
- GI50 (UO-31): 54.1 µM (inactive)

SMILES: Cc1ccc(C2NC(=N)NC3=C2CCOc2c3ccc3ccccc23)cc1 (stereo unspecified)
- GI50 (786-0): 2.61 µM (inactive)
- GI50 (A498): 17.3 µM (inactive)
- GI50 (A549): 14.6 µM (inactive)
- GI50 (BT-549): 6.04 µM (inactive)
- GI50 (CAKI-1): 3.66 µM (inactive)
- GI50 (CCRF-CEM): 0.468 µM (active)
- GI50 (COLO 205): 20.8 µM (inactive)
- GI50 (DU-145): 7.35 µM (inactive)
- GI50 (EKVX): 7.8 µM (inactive)
- GI50 (HCC 2998): 7.16 µM (inactive)
- GI50 (HCT-116): 1.93 µM (inactive)
- GI50 (HCT-15): 4.3 µM
- GI50 (HL-60): 2.96 µM (inactive)
- GI50 (HOP-62): 4.94 µM (inactive)
- GI50 (HOP-92): 5.66 µM (inactive)
- GI50 (HT-29): 1.81 µM (inactive)
- GI50 (Hs-578T): 20.5 µM (inactive)
- GI50 (K562): 2.19 µM (inactive)
- GI50 (KM12): 4.21 µM (inactive)
- GI50 (M14): 1.76 µM (inactive)
- GI50 (MCF7): 4.91 µM (inactive)
- GI50 (MDA-MB-231): 3.75 µM (inactive)
- GI50 (MDA-MB-435): 2.27 µM (inactive)
- GI50 (MOLT-4): 7.26 µM (inactive)
- GI50 (NCI-H23): 34.9 µM (inactive)
- GI50 (NCI-H460): 14.2 µM (inactive)
- GI50 (NCI-H522): 33.5 µM (inactive)
- GI50 (NCI/ADR-RES): 15.1 µM (inactive)
- GI50 (OVCAR-3): 4.92 µM (inactive)
- GI50 (OVCAR-4): 9.38 µM (inactive)
- GI50 (OVCAR-5): 41.6 µM (inactive)
- GI50 (OVCAR-8): 33.6 µM (inactive)
- GI50 (PC-3): 21.9 µM (inactive)
- GI50 (RPMI-8226): 4.42 µM (inactive)
- GI50 (RXF 393): 31.8 µM (inactive)
- GI50 (SF-268): 24.7 µM (inactive)
- GI50 (SF-295): 16 µM (inactive)
- GI50 (SF-539): 1.57 µM (inactive)
- GI50 (SK-MEL-28): 5.55 µM (inactive)
- GI50 (SK-MEL-2): 36.7 µM (inactive)
- GI50 (SK-MEL-5): 12.9 µM (inactive)
- GI50 (SK-OV-3): 42 µM (inactive)
- GI50 (SN12C): 6.38 µM (inactive)
- GI50 (SNB-19): 29.6 µM (inactive)
- GI50 (SNB-75): 5.21 µM (inactive)
- GI50 (SR): 0.466 µM (active)
- GI50 (SW-620): 6.84 µM (inactive)
- GI50 (T47D): 25.2 µM (inactive)
- GI50 (TK-10): 29.4 µM (inactive)
- GI50 (U-251): 15.9 µM (inactive)
- GI50 (UACC-257): 31.3 µM (inactive)
- GI50 (UACC-62): 2.58 µM (inactive)
- GI50 (UO-31): 42.9 µM (inactive)

SMILES: C=CC1(CC[C@]2(c3ccc(OC)c(OC)c3)C=[N+]([O-])O[C@H](O[C@@H]3CCCC[C@H]3C(C)(C)c3ccccc3)C2)OCC(C)(C)CO1
- GI50 (786-0): 11.9 µM (inactive)
- GI50 (A498): > 45 µM (inactive)
- GI50 (A549): 14.6 µM (inactive)
- GI50 (ACHN): 16 µM (inactive)
- GI50 (BT-549): 21 µM (inactive)
- GI50 (CAKI-1): 6.95 µM (inactive)
- GI50 (CCRF-CEM): 4.18 µM (inactive)
- GI50 (COLO 205): 16.9 µM (inactive)
- GI50 (DU-145): 13.9 µM (inactive)
- GI50 (EKVX): 12.7 µM (inactive)
- GI50 (HCC 2998): 16.1 µM (inactive)
- GI50 (HCT-116): 5.57 µM (inactive)
- GI50 (HCT-15): 8.2 µM
- GI50 (HL-60): 1.97 µM (inactive)
- GI50 (HOP-62): 14.7 µM (inactive)
- GI50 (HOP-92): 13.5 µM (inactive)
- GI50 (HT-29): 9.79 µM (inactive)
- GI50 (IGROV-1): 6.82 µM (inactive)
- GI50 (K562): 8.17 µM (inactive)
- GI50 (KM12): 14.3 µM (inactive)
- GI50 (LOX IMVI): 10.5 µM (inactive)
- GI50 (M14): 16.3 µM (inactive)
- GI50 (MCF7): 3.65 µM (inactive)
- GI50 (MDA-MB-231): 13.5 µM (inactive)
- GI50 (MDA-MB-435): 11.5 µM (inactive)
- GI50 (MDA-N): 6.11 µM (inactive)
- GI50 (MOLT-4): 3.78 µM (inactive)
- GI50 (Malme-3M): 7.26 µM (inactive)
- GI50 (NCI-H226): 19.9 µM (inactive)
- GI50 (NCI-H23): 16.2 µM (inactive)
- GI50 (NCI-H460): 16.5 µM (inactive)
- GI50 (NCI-H522): 3.11 µM (inactive)
- GI50 (NCI/ADR-RES): 10.7 µM (inactive)
- GI50 (OVCAR-3): 6.59 µM (inactive)
- GI50 (OVCAR-4): 11.3 µM (inactive)
- GI50 (OVCAR-5): 16.4 µM (inactive)
- GI50 (OVCAR-8): 7.64 µM (inactive)
- GI50 (PC-3): 7.23 µM (inactive)
- GI50 (RPMI-8226): 2.34 µM (inactive)
- GI50 (RXF 393): 12.4 µM (inactive)
- GI50 (SF-268): 7.13 µM (inactive)
- GI50 (SF-295): 22.1 µM (inactive)
- GI50 (SF-539): 14.8 µM (inactive)
- GI50 (SK-MEL-28): 19.9 µM (inactive)
- GI50 (SK-MEL-2): 12.6 µM (inactive)
- GI50 (SK-MEL-5): 14.7 µM (inactive)
- GI50 (SK-OV-3): > 44.1 µM (inactive)
- GI50 (SN12C): 10.8 µM (inactive)
- GI50 (SNB-19): 21.9 µM (inactive)
- GI50 (SNB-75): 9.62 µM (inactive)
- GI50 (SR): > 19.9 µM (inactive)
- GI50 (SW-620): 22.5 µM (inactive)
- GI50 (T47D): 11.6 µM (inactive)
- GI50 (TK-10): 25.4 µM (inactive)
- GI50 (U-251): 20 µM (inactive)
- GI50 (UACC-257): 18.8 µM (inactive)
- GI50 (UACC-62): 14 µM (inactive)
- GI50 (UO-31): 11.5 µM (inactive)

From ChEMBL document CHEMBL1201862, “PubChem BioAssay data set” (2004)
